{"source": "patent US20130156825A1", "about": "“Modafinil Formulations” (CEPHALON, INC., priority 2002, published 2013)", "key": {"[1]": {"experiment": "PSD of modafinil particles, Malvern laser technique", "assay_type": "physicochemical", "method": "(§1) Modafinil PSD was measured in '517 U.S. patent by using a Hiac/Royco machine. This machine uses a light obscuration technique for the PSD measurement. We repeated the measurements of the PSD on a Hiac/Royco machine and compared it with a different laser beam obscuration technique offered by the commonly used Malvern machine. Both methods use light obscuration as means to evaluate the PSD, but they work on different principles. The results confirmed the validity of our PSD measurements. Both methods gave similar values. Both methods also gave PSD results that are far away from the scope of the values claimed by the '517 U.S. Patent. The following table summarizes the data. Values are reported in microns. The term D(v,0.5) denotes the diameter of the largest particle found in 50% of the particles sorted in increasing order. The other two terms refer to 85% and 95% of the particles. The terms mean, median and mode are used in their regular statistical meaning."}, "[2]": {"experiment": "PSD of modafinil used to prepare the modafinil tablets", "assay_type": "physicochemical", "details": "modafinil used for 200 mg tablets, method not stated", "method": "Tablets containing 200 mg of modafinil having PSD as provided in table 2 below (values are in microns) were prepared: […]"}, "[3]": {"experiment": "PSD of modafinil particles, Hiac/Royco light obscuration", "assay_type": "physicochemical", "details": "Hiac", "method": "as §1"}, "[4]": {"details": "'517 U.S. Patent; cited from earlier work"}}, "data": [{"smiles": "NC(=O)C[S+]([O-])C(c1ccccc1)c1ccccc1", "note": "(centres unmarked) [Batch A, 2-[(diphenylmethyl)sulfinyl]acetamide]", "values": [{"measurement": "D(v, 0.5)", "setting": "[1]; listed as A", "result": 107, "unit": "microns"}, {"measurement": "D(v, 0.85)", "setting": "[1]; listed as A", "result": 235, "unit": "microns"}, {"measurement": "D(v, 0.95)", "setting": "[1]; listed as A", "result": 318, "unit": "microns"}, {"measurement": "Median particle size", "setting": "[1]; listed as A", "result": 107, "unit": "microns"}, {"measurement": "D(v, 0.5)", "setting": "[2]; listed as A", "result": 107, "unit": "microns"}, {"measurement": "D(v, 0.85)", "setting": "[2]; listed as A", "result": 235, "unit": "microns"}, {"measurement": "D(v, 0.95)", "setting": "[2]; listed as A", "result": 318, "unit": "microns"}, {"measurement": "Median", "setting": "[2]; listed as A", "result": 107, "unit": "microns"}, {"measurement": "D(v, 0.5)", "setting": "[3]; listed as A", "result": 133, "unit": "microns"}, {"measurement": "D(v, 0.85)", "setting": "[3]; listed as A", "result": 229, "unit": "microns"}, {"measurement": "D(v, 0.95)", "setting": "[3]; listed as A", "result": 282, "unit": "microns"}, {"measurement": "Mean particle size", "setting": "[3]; listed as A", "result": 51, "unit": "microns"}, {"measurement": "Median particle size", "setting": "[3]; listed as A", "result": 134, "unit": "microns"}, {"measurement": "mode particle size", "setting": "[3]; listed as A", "result": 196, "unit": "microns"}]}, {"smiles": "NC(=O)C[S+]([O-])C(c1ccccc1)c1ccccc1", "note": "(centres unmarked) [Batch B, 2-[(diphenylmethyl)sulfinyl]acetamide]", "values": [{"measurement": "D(v, 0.5)", "setting": "[1]; listed as B", "result": 85, "unit": "microns"}, {"measurement": "D(v, 0.85)", "setting": "[1]; listed as B", "result": 215, "unit": "microns"}, {"measurement": "D(v, 0.95)", "setting": "[1]; listed as B", "result": 293, "unit": "microns"}, {"measurement": "Median particle size", "setting": "[1]; listed as B", "result": 85, "unit": "microns"}, {"measurement": "D(v, 0.5)", "setting": "[2]; listed as B", "result": 85, "unit": "microns"}, {"measurement": "D(v, 0.85)", "setting": "[2]; listed as B", "result": 215, "unit": "microns"}, {"measurement": "D(v, 0.95)", "setting": "[2]; listed as B", "result": 293, "unit": "microns"}, {"measurement": "Median", "setting": "[2]; listed as B", "result": 85, "unit": "microns"}, {"measurement": "D(v, 0.5)", "setting": "[3]; listed as B", "result": 103, "unit": "microns"}, {"measurement": "D(v, 0.85)", "setting": "[3]; listed as B", "result": 194, "unit": "microns"}, {"measurement": "D(v, 0.95)", "setting": "[3]; listed as B", "result": 265, "unit": "microns"}, {"measurement": "Mean particle size", "setting": "[3]; listed as B", "result": 40, "unit": "microns"}, {"measurement": "Median particle size", "setting": "[3]; listed as B", "result": 104, "unit": "microns"}, {"measurement": "mode particle size", "setting": "[3]; listed as B", "result": 148, "unit": "microns"}]}, {"smiles": "NC(=O)C[S+]([O-])C(c1ccccc1)c1ccccc1", "note": "(centres unmarked) [Batch C, 2-[(diphenylmethyl)sulfinyl]acetamide]", "values": [{"measurement": "D(v, 0.5)", "setting": "[1]; listed as C", "result": 128, "unit": "microns"}, {"measurement": "D(v, 0.85)", "setting": "[1]; listed as C", "result": 228, "unit": "microns"}, {"measurement": "D(v, 0.95)", "setting": "[1]; listed as C", "result": 303, "unit": "microns"}, {"measurement": "Median particle size", "setting": "[1]; listed as C", "result": 128, "unit": "microns"}, {"measurement": "D(v, 0.5)", "setting": "[2]; listed as C", "result": 128, "unit": "microns"}, {"measurement": "D(v, 0.85)", "setting": "[2]; listed as C", "result": 228, "unit": "microns"}, {"measurement": "D(v, 0.95)", "setting": "[2]; listed as C", "result": 303, "unit": "microns"}, {"measurement": "Median", "setting": "[2]; listed as C", "result": 128, "unit": "microns"}, {"measurement": "D(v, 0.5)", "setting": "[3]; listed as C", "result": 148, "unit": "microns"}, {"measurement": "D(v, 0.85)", "setting": "[3]; listed as C", "result": 231, "unit": "microns"}, {"measurement": "D(v, 0.95)", "setting": "[3]; listed as C", "result": 277, "unit": "microns"}, {"measurement": "Mean particle size", "setting": "[3]; listed as C", "result": 51, "unit": "microns"}, {"measurement": "Median particle size", "setting": "[3]; listed as C", "result": 148, "unit": "microns"}, {"measurement": "mode particle size", "setting": "[3]; listed as C", "result": 193, "unit": "microns"}]}, {"smiles": "NC(=O)C[S+]([O-])C(c1ccccc1)c1ccccc1", "note": "(centres unmarked) [Batch D, 2-[(diphenylmethyl)sulfinyl]acetamide]", "values": [{"measurement": "D(v, 0.5)", "setting": "[2]; listed as D", "result": 95, "unit": "microns"}, {"measurement": "D(v, 0.85)", "setting": "[2]; listed as D", "result": 217, "unit": "microns"}, {"measurement": "D(v, 0.95)", "setting": "[2]; listed as D", "result": 297, "unit": "microns"}, {"measurement": "Median", "setting": "[2]; listed as D", "result": 95, "unit": "microns"}]}, {"smiles": "NC(=O)C[S+]([O-])C(c1ccccc1)c1ccccc1", "note": "(centres unmarked) [“early” batches]", "values": [{"measurement": "median value of modafinil particles", "setting": "[4]", "result": "94-143 μ"}, {"measurement": "size below which 95% of the particles lie", "setting": "[4]", "result": "220-280 μ"}]}, {"smiles": "NC(=O)C[S+]([O-])C(c1ccccc1)c1ccccc1", "note": "(centres unmarked) [“late” batches]", "values": [{"measurement": "median value of modafinil particles", "setting": "[4]", "result": "31-50 μ"}, {"measurement": "size below which 95% of the particles lie", "setting": "[4]", "result": "110-150 μ"}]}]}
